Source: article PMC12389355, “Physiologically Based Pharmacokinetic Modeling to Assess Perpetrator and Victim Cytochrome P450 2C Induction Risk” (Pharmaceutics, 2025)
Read-outs that look alike come from different tables or passages of the source.

Tests used:
CYP2C9 [1] = experiment: CYP2C9 mRNA induction in HTC model
CYP2C19 [2] = experiment: CYP2C19 enzyme activity induction in HTC model (omeprazole 5-hydroxylation)
CYP2B6 [3] = experiment: in vitro; settings: human
CYP2C8 [4] = experiment: CYP2C8 mRNA induction in HTC model
CYP2C9 [5] = experiment: in vitro; settings: human
CYP2C19 [6] = experiment: CYP2C19 mRNA induction in HTC model
CYP2C19 [7] = experiment: in vitro; settings: human
CYP2C9 [8] = experiment: in vitro; settings: human, probe diclofenac (4-hydroxy diclofenac formation)
CYP2C8 [9] = experiment: in vitro; settings: human
CYP3A4 [10] = experiment: CYP3A4 mRNA induction in human hepatocyte triculture (HTC) model
CYP3A4 [11] = experiment: CYP3A4 enzyme activity induction in HTC model (midazolam 1-hydroxylation)
CYP2B6 [12] = experiment: CYP2B6 mRNA induction in HTC model
CYP2C9 [13] = experiment: CYP2C9 enzyme activity induction in HTC model (diclofenac 4-hydroxylation)
[14] = cited from earlier work
CYP3A4 [15] = experiment: in vitro; settings: human
CYP3A4 [16] = settings: victim drug; References of Tables 3 and 4 ([27]-[44]); cited from earlier work
CYP2C19 [17] = settings: victim drug; References of Tables 3 and 4 ([27]-[44]); cited from earlier work
[18] = Donor 1, nominal concentrations, 96 h
[19] = victim drug after administration with rifampicin, References of Table 4 ([27]-[43]), DIDB

CNC(=O)c1ccc(N2C(=S)N(c3cnc(C#N)c(C(F)(F)F)c3)C(=O)C23CCC3)cc1F [Apalutamide, apalutamide]
EC50 (CYP2C9 [1]; Donor 2): 0.419 µM
EC50 (CYP2C9 [1]; Donor 3): 0.474 µM
EC50 (CYP2C19 [2]; Donor 1): 0.455 µM
EC50 (CYP2C19 [2]; Donor 2): 1.03 µM
EC50 (CYP2C19 [2]; Donor 3): 0.865 µM
EC50 at 96 h (CYP2B6 [3]): 4.44 µM
EC50 (CYP2C8 [4]; Donor 2): 1.22 µM
EC50 (CYP2C8 [4]; Donor 3): 1.26 µM
EC50 at 96 h (CYP2C9 [5]): 0.794 µM
EC50 (CYP2C19 [6]; Donor 2): 5.22 µM
EC50 (CYP2C19 [6]; Donor 3): 6.04 µM
EC50 at 96 h (CYP2C19 [7]): 4.01 µM
EC50 at 96 h (CYP2C9 [8]): 13.1 µM
EC50 at 96 h (CYP2C8 [9]): 1.68 µM
EC50 (CYP2B6 [12]; Donor 2): 2.98 µM
EC50 (CYP2B6 [12]; Donor 3): 2.96 µM
EC50 (CYP2C9 [13]; Donor 3): 23.7 µM

CC(NC(C)(C)C)C(=O)c1cccc(Cl)c1 (stereo not drawn) [Bupropion, bupropion]
% AUC Reduction (Clinically Observed) [14, 19]: 67.2%

NC(=O)N1c2ccccc2C=Cc2ccccc21 [Carbamazepine, carbamazepine]
EC50 (CYP2C19 [2]; Donor 1): 8.14 µM
EC50 (CYP2C19 [2]; Donor 2): 2.05 µM
EC50 (CYP2C19 [2]; Donor 3): 18 µM
EC50 at 96 h (CYP2B6 [3]): 46.9 µM
EC50 (CYP2C8 [4]; Donor 1): 35.6 µM
EC50 (CYP2C8 [4]; Donor 2): 20 µM
EC50 (CYP2C8 [4]; Donor 3): 40.2 µM
EC50 at 96 h (CYP2C9 [5]): 9.86 µM
EC50 (CYP2C19 [6]; Donor 2): 186 µM
EC50 (CYP2C19 [6]; Donor 3): 182 µM
EC50 at 96 h (CYP2C19 [7]): 124 µM
EC50 at 96 h (CYP2C9 [8]): 41.4 µM
EC50 (CYP2B6 [12]; Donor 2): 41.9 µM
EC50 (CYP2B6 [12]; Donor 3): 59 µM

O=C1Nc2ccc(Cl)cc2[C@@](C#CC2CC2)(C(F)(F)F)O1 [Efavirenz, efavirenz]
EC50 (CYP2C19 [2]; Donor 1): 0.946 µM
EC50 (CYP2C19 [2]; Donor 2): 0.297 µM
EC50 (CYP2C19 [2]; Donor 3): 2.48 µM
EC50 (CYP2C8 [4]; Donor 1): 4.48 µM
EC50 (CYP2C8 [4]; Donor 2): 1.97 µM
EC50 (CYP2C8 [4]; Donor 3): 2.95 µM
EC50 at 96 h (CYP2C9 [5]): 0.455 µM
EC50 (CYP2C19 [6]; Donor 1): 8.3 µM
EC50 (CYP2C19 [6]; Donor 3): 2.91 µM
EC50 at 96 h (CYP2C9 [8]): 4.29 µM

COc1ccc(Cl)cc1C(=O)NCCc1ccc(S(=O)(=O)NC(=O)NC2CCCCC2)cc1 [Glyburide, glyburide]
% AUC Reduction (Clinically Observed) [14, 19]: 38.9%

Cc1ncc2n1-c1ccc(Cl)cc1C(c1ccccc1F)=NC2 [Midazolam, midazolam]
% AUC Reduction (Clinically Observed) ([14]; in vivo): 94.7%

COc1ccc2[nH]c([S+]([O-])Cc3ncc(C)c(OC)c3C)nc2c1 (stereo not drawn) [Omeprazole, omeprazole]
fm CYP3A4 (CYP3A4 [16]): 0.32
% AUC Reduction (Clinically Observed) [14, 19]: 86.1%
fm CYP2C19 (CYP2C19 [17]): 0.68
